Source: ChEMBL document CHEMBL5537170, “Design, Synthesis, and Anti-Osteoporotic Characterization of Arginine N-Glycosylated Teriparatide Analogs via the Silver-catalyzed Solid-Phase Glycosylation Strategy” (J Med Chem, 2024)
Active and inactive are the calls of the source. The rule behind the calls is not given here.

Key:
[1] = Induction of osteoblast differentiation in C57BL/6 mouse Pre-Osteoblast cells assessed as fold increase in ephrinB2 protein expression at 50 nM measured after 72 hrs by Western blot analysis relative to control; assay type: functional
Pre-Osteoblast [2] = experiment: Induction of osteoblast differentiation in C57BL/6 mouse Pre-Osteoblast cells assessed as increase in ALP expression by measuring increase in ALP-positive cells with purple color at 50 nM measured after 2 days by ALP staining based analysis; assay type: functional, cell-based; conditions: time 2.0 day
Pre-Osteoblast [3] = experiment: Induction of osteoblast differentiation in C57BL/6 mouse Pre-Osteoblast cells assessed as upregulation of ALP gene expression measured on day 4 and 7 by qPCR analysis; assay type: functional, cell-based; conditions: time 4-7 day
[4] = Cytotoxicity against C57BL/6 mouse Pre-Osteoblast cells assessed as cell death upto 5 uM incubated for 4 days by CCK-8 assay; assay type: toxicity, cell-based; conditions: 96 h, time 4 day
Mus musculus [5] = experiment: Anti-osteoporosis activity in ovariectomized C57BL/6J mouse model assessed as increase in bone surface density in femur at 20 microg/kg, sc administered 3 times a week for 8 weeks by micro-CT analysis; assay type: functional, organism-based; conditions: dose 20.0 µg/kg
Pre-Osteoblast [6] = experiment: Induction of osteoblast differentiation in C57BL/6 mouse Pre-Osteoblast cells assessed as increase in bone mineralization by measuring increase in area of calcium nodules measured after 14 days by Alizarin Red S staining based analysis; assay type: functional, cell-based; conditions: time 14.0 day
[7] = Induction of osteoblast differentiation in C57BL/6 mouse Pre-Osteoblast cells assessed as fold increase in ephrinB2 protein expression at 100 nM measured after 72 hrs by Western blot analysis relative to control; assay type: functional
Pre-Osteoblast [8] = experiment: Induction of osteoblast differentiation in C57BL/6 mouse Pre-Osteoblast cells assessed as increase in bone mineralization by measuring increase in red calcium nodules measured after 14 days by Alizarin Red S staining based analysis; assay type: functional, cell-based; conditions: time 14.0 day
Mus musculus [9] = experiment: Anti-osteoporosis activity in ovariectomized C57BL/6J mouse model assessed as increase in bone volume percent in femur at 20 microg/kg, sc administered 3 times a week for 8 weeks by micro-CT analysis; assay type: functional, organism-based; conditions: dose 20.0 µg/kg
Mus musculus [10] = experiment: Anti-osteoporosis activity in ovariectomized C57BL/6J mouse model assessed as increase in trabecular number in femur at 20 microg/kg, sc administered 3 times a week for 8 weeks by micro-CT analysis; assay type: functional, organism-based; conditions: dose 20.0 µg/kg
Pre-Osteoblast [11] = experiment: Induction of osteoblast differentiation in C57BL/6 mouse Pre-Osteoblast cells assessed as upregulation of OCN gene expression measured on day 4 and 7 by qPCR analysis; assay type: functional, cell-based; conditions: time 4-7 day
Pre-Osteoblast [12] = experiment: Induction of osteoblast differentiation in C57BL/6 mouse Pre-Osteoblast cells assessed as upregulation of Runx2 gene expression measured on day 4 and 7 by qPCR analysis; assay type: functional, cell-based; conditions: time 4-7 day
[13] = Stability in human serum assessed as compound remaining at 1 mg/ml measured after 12 hrs by HPLC analysis; assay type: ADME, cell-free; conditions: read-out: Stability
[14] = Induction of osteoblast differentiation in C57BL/6 mouse Pre-Osteoblast cells assessed as fold increase in ephrinB2 protein expression at 200 nM measured after 72 hrs by Western blot analysis relative to control; assay type: functional
[15] = Stability in human serum assessed as compound degradation at 1 mg/ml measured after 12 hrs by HPLC analysis; assay type: ADME, cell-free; conditions: read-out: Drug degradation

CC[C@H](C)[C@H](NC(=O)[C@H](CCC(=O)O)NC(=O)[C@H](CO)NC(=O)[C@@H](NC(=O)[C@H](CO)NC(C)=O)C(C)C)C(=O)N[C@@H](CCC(N)=O)C(=O)N[C@@H](CC(C)C)C(=O)N[C@@H](CCSC)C(=O)N[C@@H](Cc1cnc[nH]1)C(=O)N[C@@H](CC(N)=O)C(=O)N[C@@H](CC(C)C)C(=O)NCC(=O)N[C@@H](CCCCN)C(=O)N[C@@H](Cc1cnc[nH]1)C(=O)N[C@@H](CC(C)C)C(=O)N[C@@H](CC(N)=O)C(=O)N[C@@H](CO)C(=O)N[C@@H](CCSC)C(=O)N[C@@H](CCC(=O)O)C(=O)N[C@@H](CCCNC(=N)N)C(=O)N[C@H](C(=O)N[C@@H](CCC(=O)O)C(=O)N[C@@H](Cc1c[nH]c2ccccc12)C(=O)N[C@@H](CC(C)C)C(=O)N[C@@H](CCCNC(=N)N[C@@H]1O[C@H](CO)[C@@H](O[C@H]2O[C@H](CO)[C@@H](O)[C@H](O)[C@H]2O)[C@H](O)[C@H]1O)C(=O)N[C@@H](CCCCN)C(=O)N[C@@H](CCCCN)C(=O)N[C@@H](CC(C)C)C(=O)N[C@@H](CCC(N)=O)C(=O)N[C@@H](CC(=O)O)C(=O)N[C@H](C(=O)N[C@@H](Cc1cnc[nH]1)C(=O)N[C@@H](CC(N)=O)C(=O)N[C@@H](Cc1ccccc1)C(N)=O)C(C)C)C(C)C
fold change (FC) [1]: 1.16 | Activity (Pre-Osteoblast [2]): Active | Activity (Pre-Osteoblast [3]): Active | Activity [4]: Non-Toxic | Activity (Mus musculus [5]): Active | Activity (Pre-Osteoblast [6]): Active | fold change (FC) [7]: 1.34 | Activity (Pre-Osteoblast [8]): Active | Activity (Mus musculus [9]): Active | Activity (Mus musculus [10]): Active | Activity (Pre-Osteoblast [11]): Active | Activity (Pre-Osteoblast [12]): Active | remaining at 12 h, 1 mg/ml [13]: > 75% | fold change (FC) [14]: 1.32

CC[C@H](C)[C@H](NC(=O)[C@H](CCC(=O)O)NC(=O)[C@H](CO)NC(=O)[C@@H](NC(=O)[C@H](CO)NC(C)=O)C(C)C)C(=O)N[C@@H](CCC(N)=O)C(=O)N[C@@H](CC(C)C)C(=O)N[C@@H](CCSC)C(=O)N[C@@H](Cc1cnc[nH]1)C(=O)N[C@@H](CC(N)=O)C(=O)N[C@@H](CC(C)C)C(=O)NCC(=O)N[C@@H](CCCCN)C(=O)N[C@@H](Cc1cnc[nH]1)C(=O)N[C@@H](CC(C)C)C(=O)N[C@@H](CC(N)=O)C(=O)N[C@@H](CO)C(=O)N[C@@H](CCSC)C(=O)N[C@@H](CCC(=O)O)C(=O)N[C@@H](CCCNC(=N)N)C(=O)N[C@H](C(=O)N[C@@H](CCC(=O)O)C(=O)N[C@@H](Cc1c[nH]c2ccccc12)C(=O)N[C@@H](CC(C)C)C(=O)N[C@@H](CCCNC(=N)N)C(=O)N[C@@H](CCCCN)C(=O)N[C@@H](CCCCN)C(=O)N[C@@H](CC(C)C)C(=O)N[C@@H](CCC(N)=O)C(=O)N[C@@H](CC(=O)O)C(=O)N[C@H](C(=O)N[C@@H](Cc1cnc[nH]1)C(=O)N[C@@H](CC(N)=O)C(=O)N[C@@H](Cc1ccccc1)C(N)=O)C(C)C)C(C)C
metabolised at 12 h, 1 mg/ml [15]: > 50% | fold change (FC) [1]: 1.04 | Activity [4]: Non-Toxic | fold change (FC) [7]: 1.05 | fold change (FC) [14]: 1.23
